In PubChem BioAssay AID330 (DTP/NCI, 2004):
Several values for one entry are separate records, joined by “and”; a condition that tells them apart may be missing. Identical values can stand only once. Inconclusive results and toxic doses are left out. How the source made its calls: active means survival T/C of 150% or more; inactive means T/C below 125% in these data.

System: P388 leukemia ip, CD2F1 mice, survival T/C
Assay: NCI In Vivo Anticancer Drug Screen. Data for tumor model P388 Leukemia (intraperitoneal) in CD2F1 (CDF1) mice
Conditions: endpoint: median survival time, higher = longer survival
Procedure, shortened: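 Mice carrying the transplanted tumor received test compound or vehicle. Survival was recorded in each group, and the value is the treated-group measurement divided by that of the vehicle-treated control group.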

[1] = dose: 12.5 mg/kg/injection, schedule: Q01DX005 (ip), vehicle: saline with Tween-80
[2] = dose: 100.0 mg/kg/injection, schedule: Q01DX005 (ip), vehicle: saline with Tween-80
[3] = dose: 200.0 mg/kg/injection, schedule: Q01DX005 (ip), vehicle: saline with Tween-80
[4] = dose: 200.0 mg/kg/injection, schedule: Q01DX009 (ip), vehicle: other
[5] = dose: 50.0 mg/kg/injection, schedule: Q01DX005 (ip), vehicle: saline with Tween-80
[6] = dose: 25.0 mg/kg/injection, schedule: Q01DX009 (ip), vehicle: saline with Tween-80
[7] = dose: 50.0 mg/kg/injection, schedule: Q01DX009 (ip), vehicle: saline with Tween-80
[8] = dose: 100.0 mg/kg/injection, schedule: Q01DX009 (ip), vehicle: saline with Tween-80
[9] = dose: 100.0 mg/kg/injection, schedule: Q01DX001 (ip), vehicle: Klucel (hydroxypropylcellulose) (HPC)
[10] = dose: 200.0 mg/kg/injection, schedule: Q01DX001 (ip), vehicle: Klucel (hydroxypropylcellulose) (HPC)
[11] = dose: 400.0 mg/kg/injection, schedule: Q01DX001 (ip), vehicle: Klucel (hydroxypropylcellulose) (HPC)

Measured: T/C

C=CCC(CC)(C(=O)Nc1ccc2nc(C)cc(N)c2c1)C(=O)Nc1ccc2nc(C)cc(N)c2c1
inactive: dose: 6.25 mg/kg/injection, schedule: Q01DX005 (ip), vehicle: saline with Tween-80 94 % of control | [1] 89 % of control | [2] 87 % of control | [3] 96 % of control

O=c1c2ccccc2oc2cccc(NCCCN3CCN(CCCNc4cccc5oc6ccccc6c(=O)c45)CC3)c12
inactive: dose: 7.0 mg/kg/injection, schedule: Q01DX005 (ip), vehicle: saline with Tween-80 90 % of control

O=C(O)CC1CC=CCC1CC(=O)O (stereo not drawn)
inactive: dose: 100.0 mg/kg/injection, schedule: Q01DX001 (ip), vehicle: saline sonified 100 % of control | dose: 200.0 mg/kg/injection, schedule: Q01DX001 (ip), vehicle: saline sonified 100 % of control | dose: 400.0 mg/kg/injection, schedule: Q01DX001 (ip), vehicle: saline sonified 105 % of control

NC(=O)C(CC(=O)O)NC(=O)OCc1ccccc1 (stereo not drawn)
inactive: dose: 4.0 mg/kg/injection, schedule: Q01DX009 (ip), vehicle: other 100 % of control | dose: 8.0 mg/kg/injection, schedule: Q01DX009 (ip), vehicle: other 114 % of control | dose: 16.0 mg/kg/injection, schedule: Q01DX009 (ip), vehicle: other 101 % of control | dose: 32.0 mg/kg/injection, schedule: Q01DX009 (ip), vehicle: other 98 % of control | dose: 50.0 mg/kg/injection, schedule: Q01DX009 (ip), vehicle: other 96 % of control | dose: 64.0 mg/kg/injection, schedule: Q01DX009 (ip), vehicle: other 91 % of control | dose: 100.0 mg/kg/injection, schedule: Q01DX009 (ip), vehicle: other 90 % of control | dose: 150.0 mg/kg/injection, schedule: Q01DX009 (ip), vehicle: other 109 % of control | [4] 105 % of control | dose: 400.0 mg/kg/injection, schedule: Q01DX009 (ip), vehicle: other 113 % of control

COC1(OC)CCC(=O)N(Cc2ccccc2)c2cc(C)c(N(Cc3ccccc3)S(=O)(=O)c3ccc(C)cc3)cc2C1C (stereo not drawn)
inactive: [1] 95 % of control | dose: 25.0 mg/kg/injection, schedule: Q01DX005 (ip), vehicle: saline with Tween-80 90 % of control | [5] 86 % of control and 95 % of control

Nc1ncnc2nc(CO)[nH]c12
inactive: dose: 0.78 mg/kg/injection, schedule: Q01DX009 (ip), vehicle: saline with Tween-80 100 % of control | dose: 1.56 mg/kg/injection, schedule: Q01DX009 (ip), vehicle: saline with Tween-80 97 % of control | dose: 3.13 mg/kg/injection, schedule: Q01DX009 (ip), vehicle: saline with Tween-80 93 % of control | dose: 6.25 mg/kg/injection, schedule: Q01DX009 (ip), vehicle: saline with Tween-80 91 % of control

CC(C)n1cnc2c(=S)nc[nH]c21
inactive: [6] 90 % of control | [7] 100 % of control | [8] 109 % of control

CN=C(N)N/N=C(/C)c1cc2ccccc2c2ccccc12
inactive: dose: 25.0 mg/kg/injection, schedule: Q04DX002 (ip), vehicle: saline with Tween-80 95 % of control | dose: 50.0 mg/kg/injection, schedule: Q04DX002 (ip), vehicle: saline with Tween-80 101 % of control | dose: 100.0 mg/kg/injection, schedule: Q04DX002 (ip), vehicle: saline with Tween-80 102 % of control

COc1ccc2c(c1)CCC(c1nc3cccc([N+](=O)[O-])c3[nH]c1=O)=C2O
inactive: dose: 7.5 mg/kg/injection, schedule: Q01DX005 (ip), vehicle: Klucel + Tween-80 91 % of control | dose: 15.0 mg/kg/injection, schedule: Q01DX005 (ip), vehicle: Klucel + Tween-80 94 % of control | dose: 30.0 mg/kg/injection, schedule: Q01DX005 (ip), vehicle: Klucel + Tween-80 92 % of control

Nc1ccc(-c2csc(Nc3ccnc4cc(Cl)ccc34)n2)cc1
inactive: [5] 99 % of control | [2] 93 % of control | [3] 88 % of control

COC(=O)C1=CN(C)/C(=C/C=C(\C#N)C(=O)OC)C(C#N)=C1N
inactive: [9] 96 % of control | [10] 97 % of control | [11] 96 % of control

Cc1c(-c2ccccc2)ccnc1/C=N/NC(N)=S
inactive: dose: 6.25 mg/kg/injection, schedule: Q01DX009 (ip), vehicle: saline 101 % of control | dose: 12.5 mg/kg/injection, schedule: Q01DX009 (ip), vehicle: saline 120 % of control | dose: 25.0 mg/kg/injection, schedule: Q01DX009 (ip), vehicle: saline 120 % of control | dose: 100.0 mg/kg/injection, schedule: Q01DX009 (ip), vehicle: saline 103 % of control

O=C(NC(=O)C(F)(F)F)Nc1ccc(Cl)cc1
inactive: [7] 99 % of control | [8] 105 % of control

Nc1ncc2c(=O)c3c(ccc4ccccc43)oc2n1
inactive: dose: 12.5 mg/kg/injection, schedule: Q01DX009 (ip), vehicle: saline with Tween-80 96 % of control | [6] 98 % of control | [7] 90 % of control | [8] 87 % of control

CCCCNC(=O)C(C)O (stereo not drawn)
inactive: dose: 50.0 mg/kg/injection, schedule: Q01DX005 (ip), vehicle: saline 101 % of control | dose: 100.0 mg/kg/injection, schedule: Q01DX005 (ip), vehicle: saline 99 % of control | dose: 200.0 mg/kg/injection, schedule: Q01DX005 (ip), vehicle: saline 92 % of control

Cn1nc2c(cc1=O)Cc1ccccc1-2
inactive: [5] 103 % of control | [2] 98 % of control | [3] 101 % of control

Cc1c(C)c(C)c(S(=O)(=O)NCCCNS(=O)(=O)c2c(C)c(C)c(C)c(C)c2C)c(C)c1C
inactive: dose: 50.0 mg/kg/injection, schedule: Q01DX005 (ip), vehicle: Klucel (hydroxypropylcellulose) (HPC) 98 % of control | dose: 100.0 mg/kg/injection, schedule: Q01DX005 (ip), vehicle: Klucel (hydroxypropylcellulose) (HPC) 94 % of control | dose: 200.0 mg/kg/injection, schedule: Q01DX005 (ip), vehicle: Klucel (hydroxypropylcellulose) (HPC) 89 % of control

COc1ccc(NCCOc2ccccc2Br)cc1
inactive: dose: 100.0 mg/kg/injection, schedule: Q04DX003 (ip), vehicle: other 90 % of control | dose: 132.0 mg/kg/injection, schedule: Q01DX009 (ip), vehicle: other 123 % of control | [4] 104 % of control | dose: 200.0 mg/kg/injection, schedule: Q04DX003 (ip), vehicle: other 90 % of control | dose: 300.0 mg/kg/injection, schedule: Q01DX009 (ip), vehicle: other 100 % of control | dose: 400.0 mg/kg/injection, schedule: Q04DX003 (ip), vehicle: other 95 % of control

Cc1cc(Cl)ccc1NC(=O)C1C(=O)CC(C)(C)CC1=O
inactive: [5] 93 % of control | [2] 101 % of control | [3] 111 % of control

COc1cc(/C=C/C(C)=N/NC(N)=S)cc(OC)c1OC
inactive: dose: 3.75 mg/kg/injection, schedule: Q01DX005 (ip), vehicle: Klucel (hydroxypropylcellulose) (HPC) 102 % of control | dose: 7.5 mg/kg/injection, schedule: Q01DX005 (ip), vehicle: Klucel (hydroxypropylcellulose) (HPC) 105 % of control | dose: 15.0 mg/kg/injection, schedule: Q01DX005 (ip), vehicle: Klucel (hydroxypropylcellulose) (HPC) 99 % of control | dose: 30.0 mg/kg/injection, schedule: Q01DX005 (ip), vehicle: Klucel (hydroxypropylcellulose) (HPC) 90 % of control and 94 % of control

Cc1nc2nc[nH]n2c1N=Nc1ccccc1
inactive: dose: 60.0 mg/kg/injection, schedule: Q01DX005 (ip), vehicle: Klucel (hydroxypropylcellulose) (HPC) 98 % of control | dose: 120.0 mg/kg/injection, schedule: Q01DX005 (ip), vehicle: Klucel (hydroxypropylcellulose) (HPC) 95 % of control | dose: 240.0 mg/kg/injection, schedule: Q01DX005 (ip), vehicle: Klucel (hydroxypropylcellulose) (HPC) 107 % of control

O=C([CH-]C(=O)C(F)(F)F)c1ccccc1.O=C([CH-]C(=O)C(F)(F)F)c1ccccc1.O=C([CH-]C(=O)C(F)(F)F)c1ccccc1.O=C([CH-]C(=O)C(F)(F)F)c1ccccc1.[Eu+3].c1ccncc1
inactive: dose: 50.0 mg/kg/injection, schedule: Q01DX009 (ip), vehicle: Klucel (hydroxypropylcellulose) (HPC) 113 % of control | dose: 100.0 mg/kg/injection, schedule: Q01DX009 (ip), vehicle: Klucel (hydroxypropylcellulose) (HPC) 104 % of control

O=C1OC(c2ccccc2)=N/C1=C/c1c(Cl)n(-c2ccccc2)c2ccccc12
inactive: [9] 96 % of control | [10] 94 % of control | [11] 93 % of control

Nc1cccc(CCCCc2ccc(Cl)c(S(=O)(=O)F)c2)c1
inactive: dose: 50.0 mg/kg/injection, schedule: Q01DX009 (ip), vehicle: saline sonified 86 % of control | dose: 100.0 mg/kg/injection, schedule: Q01DX009 (ip), vehicle: saline sonified 86 % of control | dose: 200.0 mg/kg/injection, schedule: Q01DX009 (ip), vehicle: saline sonified 95 % of control
